Measured values published in US6599883B1, “Nasal delivery of xylitol” (Nastech Pharmaceutical Company, Inc., priority 1998, dated 2003).

Columns and labels:
[1] = type: physicochemical
Method: A composition is prepared for a dilute bathing formulation of xylitol for nasal delivery. The concentration of xylitol in the solution may be 10%-60% by weight/volume. This corresponds to 10-60 grams of xylitol per 100 ml of solution. xylitol is soluble in solution up to 64.2 grams per 100 ml of solution.

Streptococcus pneumonia = conditions: during its logarithmic growth phase; cited from earlier work

- soluble in solution [1]: up to 64.2 grams per 100 ml of solution
Structure (SMILES): OC[C@@H](O)[C@H](O)[C@@H](O)CO [xylitol]
- growth of Streptococcus pneumonia in vitro (Streptococcus pneumonia): inhibits the growth
